Experimental data taken from PubChem BioAssay AID1963986 (Molecular Pharmacology Branch, DTP, NCI, 2024).
Where “and” joins values, the source holds several entries; their conditions need not be identical. Equal values may be shown once.

System: 171881-019-R-J1-PDC tumor spheroid viability
Assay: Anticancer human tumor 171881-019-R-J1-PDC patient-derived invasive breast carcinoma cell line growth inhibition [PI3K]
Details: spheroids with HUVEC and MSC; for viability, T/C: stronger effect = lower value
Outline: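 We assembled tumor spheroids that included a stromal compartment of HUVEC and MSCs, then exposed them to targeted agents alone and together with PI3K pathway inhibitors. Concentration series descended by half-log from clinically achievable Cmax levels. Viability served as the endpoint.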

[1] = curve of first compound, second compound 0.0316 µM
[2] = curve of first compound, second compound 0.1 µM
[3] = curve of first compound, second compound 0.316 µM
[4] = curve of first compound, second compound 1 µM
[5] = curve of first compound, second compound 3.16 µM
[6] = curve of first compound, second compound 10 µM
[7] = second compound 0.0316 µM, first compound 0.0316 µM
[8] = second compound 0.0316 µM, first compound 0.1 µM
[9] = second compound 0.0316 µM, first compound 0.316 µM
[10] = second compound 0.0316 µM, first compound 1 µM
[11] = second compound 0.0316 µM, first compound 3.16 µM
[12] = second compound 0.0316 µM, first compound 10 µM
[13] = second compound 0.1 µM, first compound 0.0316 µM
[14] = second compound 0.1 µM, first compound 0.1 µM
[15] = second compound 0.1 µM, first compound 0.316 µM
[16] = second compound 0.1 µM, first compound 1 µM
[17] = second compound 0.1 µM, first compound 3.16 µM
[18] = second compound 0.1 µM, first compound 10 µM
[19] = second compound 0.316 µM, first compound 0.0316 µM
[20] = second compound 0.316 µM, first compound 0.1 µM
[21] = second compound 0.316 µM, first compound 0.316 µM
[22] = second compound 0.316 µM, first compound 1 µM
[23] = second compound 0.316 µM, first compound 3.16 µM
[24] = second compound 0.316 µM, first compound 10 µM
[25] = second compound 1 µM, first compound 0.0316 µM
[26] = second compound 1 µM, first compound 0.1 µM
[27] = second compound 1 µM, first compound 0.316 µM
[28] = second compound 1 µM, first compound 1 µM
[29] = second compound 1 µM, first compound 3.16 µM
[30] = second compound 1 µM, first compound 10 µM
[31] = second compound 3.16 µM, first compound 0.0316 µM
[32] = second compound 3.16 µM, first compound 0.1 µM
[33] = second compound 3.16 µM, first compound 0.316 µM
[34] = second compound 3.16 µM, first compound 1 µM
[35] = second compound 3.16 µM, first compound 3.16 µM
[36] = second compound 3.16 µM, first compound 10 µM
[37] = second compound 10 µM, first compound 0.0316 µM
[38] = second compound 10 µM, first compound 0.1 µM
[39] = second compound 10 µM, first compound 0.316 µM
[40] = second compound 10 µM, first compound 1 µM
[41] = second compound 10 µM, first compound 3.16 µM
[42] = second compound 10 µM, first compound 10 µM
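Also: spheroids exposed to compound for 7 days before viability read.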
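For viability, T/C in this document: 100% = DMSO vehicle-treated spheroids.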

With C[C@@H](NC(=O)c1ncnc(N)c1Cl)c1ncc(C(=O)Nc2cc(C(F)(F)F)c(Cl)cn2)s1 + Cc1nc(NC(=O)N2CCCC2C(N)=O)sc1-c1ccnc(C(C)(C)C(F)(F)F)c1 the IC50 [1] was 6.1 µM, the IC50 [2] was 3 µM and the IC50 [3] was 0.555 µM. For the same compound, the IC50 [4] was less than 0.0316 µM, the IC50 [5] was less than 0.0316 µM and the IC50 [6] was less than 0.0316 µM. It also gave a viability, T/C [7] of 92.6%, a viability, T/C [8] of 83.5% and a viability, T/C [9] of 84.8%. The viability, T/C [10] was 79.5%, the viability, T/C [11] was 65% and the viability, T/C [12] was 38.7%. The viability, T/C [13] was 86.2%, the viability, T/C [14] was 82.2% and the viability, T/C [15] was 77.9%. For the same compound, the viability, T/C [16] was 65.9%, the viability, T/C [17] was 49.2% and the viability, T/C [18] was 30.7%. It also gave a viability, T/C [19] of 55.3%, a viability, T/C [20] of 56.6% and a viability, T/C [21] of 51.8%. For the same compound, the viability, T/C [22] was 47.3%, the viability, T/C [23] was 31.9% and the viability, T/C [24] was 17.5%. It also gave a viability, T/C [25] of 32.7%, a viability, T/C [26] of 33.3% and a viability, T/C [27] of 31.1%. The viability, T/C [28] was 24.5%, the viability, T/C [29] was 17.3% and the viability, T/C [30] was 7.53%. For the same compound, the viability, T/C [31] was 16.2%, the viability, T/C [32] was 15.2% and the viability, T/C [33] was 12.5%. The viability, T/C [34] was 10.3%, the viability, T/C [35] was 5.29% and the viability, T/C [36] was 2.14%. It also gave a viability, T/C [37] of 4.03%, a viability, T/C [38] of 3.76% and a viability, T/C [39] of 3.28%. The viability, T/C [40] was 2.32%, the viability, T/C [41] was 1.29% and the viability, T/C [42] was 0.49%.

For CCCS(=O)(=O)Nc1ccc(F)c(C(=O)c2c[nH]c3ncc(-c4ccc(Cl)cc4)cc23)c1F + Cc1nc(NC(=O)N2CCCC2C(N)=O)sc1-c1ccnc(C(C)(C)C(F)(F)F)c1, the IC50 [1] was 5.56 µM, the IC50 [2] was 5.71 µM and the IC50 [3] was 4.72 µM. It also gave an IC50 [4] of less than 0.0316 µM, an IC50 [5] of less than 0.0316 µM and an IC50 [6] of less than 0.0316 µM. The viability, T/C [7] was 97.5%, the viability, T/C [8] was 91% and the viability, T/C [9] was 97.2%. For the same compound, the viability, T/C [10] was 92.2%, the viability, T/C [11] was 86.9% and the viability, T/C [12] was 11.7%. It also gave a viability, T/C [13] of 92.4%, a viability, T/C [14] of 99.3% and a viability, T/C [15] of 99.3%. The viability, T/C [16] was 97.5%, the viability, T/C [17] was 91.8% and the viability, T/C [18] was 10.3%. The viability, T/C [19] was 57.6%, the viability, T/C [20] was 60.3% and the viability, T/C [21] was 73.7%. It also gave a viability, T/C [22] of 87.1%, a viability, T/C [23] of 82.2% and a viability, T/C [24] of 8.31%. For the same compound, the viability, T/C [25] was 32.2%, the viability, T/C [26] was 36.7% and the viability, T/C [27] was 40.8%. The viability, T/C [28] was 49%, the viability, T/C [29] was 50.2% and the viability, T/C [30] was 5.09%. It also gave a viability, T/C [31] of 15.2%, a viability, T/C [32] of 16.1% and a viability, T/C [33] of 18.9%. For the same compound, the viability, T/C [34] was 21.9%, the viability, T/C [35] was 23.4% and the viability, T/C [36] was 2.52%. It also gave a viability, T/C [37] of 3.53%, a viability, T/C [38] of 3.46% and a viability, T/C [39] of 3.9%. It also gave a viability, T/C [40] of 5.16%, a viability, T/C [41] of 5.53% and a viability, T/C [42] of 2.11%.

Work on C[C@@H](NC(=O)c1ncnc(N)c1Cl)c1ncc(C(=O)Nc2cc(C(F)(F)F)c(Cl)cn2)s1 + COc1c(OCCCN2CCOCC2)ccc2c3n(c(=NC(=O)c4cnc(N)nc4)nc12)CCN3 yielded an IC50 (curve of first compound, second compound 0.00316 µM) of 2.36 µM, an IC50 (curve of first compound, second compound 0.01 µM) of 0.234 µM and an IC50 [1] of less than 0.0316 µM. For the same compound, the IC50 [2] was less than 0.0316 µM, the IC50 [3] was less than 0.0316 µM and the IC50 [4] was less than 0.0316 µM. The viability, T/C (second compound 0.00316 µM, first compound 0.0316 µM) was 62.5%, the viability, T/C (second compound 0.00316 µM, first compound 0.1 µM) was 78.9% and the viability, T/C (second compound 0.00316 µM, first compound 0.316 µM) was 67.5%. The viability, T/C (second compound 0.00316 µM, first compound 1 µM) was 62.2%, the viability, T/C (second compound 0.00316 µM, first compound 3.16 µM) was 45.9% and the viability, T/C (second compound 0.00316 µM, first compound 10 µM) was 27.2%. The viability, T/C (second compound 0.01 µM, first compound 0.0316 µM) was 50.9%, the viability, T/C (second compound 0.01 µM, first compound 0.1 µM) was 49.9% and the viability, T/C (second compound 0.01 µM, first compound 0.316 µM) was 51.3%. The viability, T/C (second compound 0.01 µM, first compound 1 µM) was 43.4%, the viability, T/C (second compound 0.01 µM, first compound 3.16 µM) was 29.9% and the viability, T/C (second compound 0.01 µM, first compound 10 µM) was 17.9%. For the same compound, the viability, T/C [7] was 27.5%, the viability, T/C [8] was 26.9% and the viability, T/C [9] was 26%. It also gave a viability, T/C [10] of 20.8%, a viability, T/C [11] of 16% and a viability, T/C [12] of 7.51%. The viability, T/C [13] was 9.3%, the viability, T/C [14] was 8.92% and the viability, T/C [15] was 5.88%. The viability, T/C [16] was 7.2%, the viability, T/C [17] was 4.61% and the viability, T/C [18] was 2.13%. The viability, T/C [19] was 2.53%, the viability, T/C [20] was 2.04% and the viability, T/C [21] was 2.28%. For the same compound, the viability, T/C [22] was 2.25%, the viability, T/C [23] was 1.53% and the viability, T/C [24] was 1.06%. It also gave a viability, T/C [25] of 1.22%, a viability, T/C [26] of 1.54% and a viability, T/C [27] of 1.62%. The viability, T/C [28] was 1.3%, the viability, T/C [29] was 0.85% and the viability, T/C [30] was 1.04%.

Compound CC1(C)CCC(Nc2ncc(C(F)(F)F)c(-c3c[nH]c4c(P(C)(C)=O)c(C#N)ccc34)n2)CN1 (stereo not given) + CC(Nc1ncnc2nc[nH]c12)c1cc2cccc(Cl)c2c(=O)n1-c1ccccc1 has an IC50 [1] of 5.91 µM, an IC50 [2] of 5.62 µM and an IC50 [3] of 5.58 µM. For the same compound, the IC50 [4] was 5.22 µM, the IC50 [5] was 4.43 µM and the IC50 [6] was less than 0.0316 µM. It also gave a viability, T/C [7] of 68.3%, a viability, T/C [8] of 77.2% and a viability, T/C [9] of 71.8%. The viability, T/C [10] was 79.3%, the viability, T/C [11] was 84.1% and the viability, T/C [12] was 28.1%. For the same compound, the viability, T/C [13] was 65.5%, the viability, T/C [14] was 74.5% and the viability, T/C [15] was 73.1%. The viability, T/C [16] was 81.5%, the viability, T/C [17] was 88.8% and the viability, T/C [18] was 23.3%. The viability, T/C [19] was 65.5%, the viability, T/C [20] was 75.1% and the viability, T/C [21] was 74.1%. The viability, T/C [22] was 83.2%, the viability, T/C [23] was 81.9% and the viability, T/C [24] was 23.4%. It also gave a viability, T/C [25] of 69.1%, a viability, T/C [26] of 69% and a viability, T/C [27] of 73.8%. It also gave a viability, T/C [28] of 78.6%, a viability, T/C [29] of 73% and a viability, T/C [30] of 20.6%. For the same compound, the viability, T/C [31] was 66%, the viability, T/C [32] was 65% and the viability, T/C [33] was 67.9%. For the same compound, the viability, T/C [34] was 71.4%, the viability, T/C [35] was 65.3% and the viability, T/C [36] was 12.7%. The viability, T/C [37] was 51%, the viability, T/C [38] was 47% and the viability, T/C [39] was 45.9%. It also gave a viability, T/C [40] of 48.5%, a viability, T/C [41] of 41.4% and a viability, T/C [42] of 3.63%.

With CC(C)NCC(C(=O)N1CCN(c2ncnc3c2C(C)CC3O)CC1)c1ccc(Cl)cc1 (stereo not given) the viability, T/C (compound 0.0316 µM) was 85.8% [middle of 4 runs], the viability, T/C (compound 0.1 µM) was 76.4% [middle of 4 runs] and the viability, T/C (compound 0.316 µM) was 57.3% (2×) and 54.7% and 53.9%. For the same compound, the viability, T/C (compound 1 µM) was 27.4% [middle of 4 runs], the viability, T/C (compound 3.16 µM) was 17.1% [middle of 4 runs] and the viability, T/C (compound 10 µM) was 9.96% [middle of 4 runs]. The IC50 (curve of compound) was 376 nM [middle of 4 runs].
